Results published in patent US8987195B2 (priority 2012, dated 2015).
Like-named read-outs stand apart in the source and are kept apart here.

Legend:
[1] = test system: HCV genotype 1b replicon; test: HCV replicon assay, genotype 1b replicon EC50; assay type: cell-based, Hepatitis C virus; settings: Hepatitis C virus, genotype 1b replicon, read-out: EC50 [gt-1b]
In short: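 Replicon cells (Neo^r, some luciferase:Neo^r fusion); G418 removed at plating; compound dilution series, 24-48 h. Readout: RNA by 32P-probe hybridization/protection or TaqMan, normalized to cyclophilin A RNA, or luciferase. EC50 vs DMSO control, 4-parameter fit.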

[2] = target: HCV NS3/4A protease genotype 1b (Hepatitis C virus genotype 1b, UniProt P26663); test: HCV NS3/4A protease time-resolved fluorescence (TRF) assay, Ki against genotype 1b; assay type: biochemical; settings: IC50 [gt-1b] (nM), NS3/4A genotype 1b, enzyme 0.2 nM
In short: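 Ki values come from IC50 fits corrected for substrate concentration and KM. The time-resolved fluorescence protease reaction used 25 nM peptide substrate, 2.5 h, room temperature, pH 7.5 HEPES buffer, after 30 min enzyme–inhibitor preincubation.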

Sequence of HCV NS3/4A protease genotype 1b (P26663 1027-1657): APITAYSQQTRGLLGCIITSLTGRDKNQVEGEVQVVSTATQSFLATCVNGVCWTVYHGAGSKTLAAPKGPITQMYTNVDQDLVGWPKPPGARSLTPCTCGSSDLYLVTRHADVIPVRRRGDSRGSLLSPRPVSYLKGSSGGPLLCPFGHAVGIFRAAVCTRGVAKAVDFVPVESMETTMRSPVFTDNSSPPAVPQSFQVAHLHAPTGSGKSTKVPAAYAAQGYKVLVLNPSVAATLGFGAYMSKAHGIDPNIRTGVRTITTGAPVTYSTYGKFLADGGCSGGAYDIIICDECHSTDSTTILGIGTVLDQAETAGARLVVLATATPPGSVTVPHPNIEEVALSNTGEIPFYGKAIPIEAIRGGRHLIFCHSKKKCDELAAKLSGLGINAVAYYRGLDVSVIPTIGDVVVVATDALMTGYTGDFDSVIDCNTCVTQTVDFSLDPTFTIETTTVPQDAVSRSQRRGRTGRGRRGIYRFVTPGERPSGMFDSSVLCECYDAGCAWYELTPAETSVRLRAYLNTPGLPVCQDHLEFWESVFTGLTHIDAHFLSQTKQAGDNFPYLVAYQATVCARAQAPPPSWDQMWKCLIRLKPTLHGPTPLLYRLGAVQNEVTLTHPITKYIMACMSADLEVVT
Sequence of HCV NS3/4A protease genotype 1b (P26663 1658-1711): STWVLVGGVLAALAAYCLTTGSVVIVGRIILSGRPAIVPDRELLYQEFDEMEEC

Cc1nc2ccc(OCC(F)(F)F)cc2c2c1O[C@]1(CC2)C[C@H]2C(=O)N[C@]3(C(=O)NS(=O)(=O)C4(C)CC4)C[C@H]3/C=C\CCCCC[C@H](NC(=O)OC3(C)CCCC3)C(=O)N2C1 [Example 302, 1-methylcyclopentyl [(2R,6S,12Z,13aS,14aR,16aS)-5′-methyl-14a-{[(1-methylcyclopropyl)sulfonyl]carbamoyl}-5,16-dioxo-9′-(2,2,2-trifluoroethoxy)-1,1′,2′,5,6,7,8,9,10,11,13a,14,14a,15,16,16a-hexadecahydrospiro[cyclopropa[e]pyrrolo[1,2-a][1,4]diazacyclopentadecine-2,3′-pyrano[2,3-c]quinolin]-6-yl]carbamate]
EC50 [1]: 4.19 nM | IC50 [2]: 0.006 nM

Cc1nc2ccc(OCC(F)(F)F)cc2c2c1O[C@]1(CC2)C[C@H]2C(=O)N[C@]3(C(=O)NS(=O)(=O)C4(C)CC4)C[C@H]3/C=C\CCCCC[C@H](NC(=O)OCC(C)(C)C)C(=O)N2C1 [Example 303, 2,2-dimethylpropyl [(2R,6S,12Z,13aS,14aR,16aS)-5′-methyl-14a-{[(1-methylcyclopropyl)sulfonyl]carbamoyl}-5,16-dioxo-9′-(2,2,2-trifluoroethoxy)-1,1′,2′,5,6,7,8,9,10,11,13a,14,14a,15,16,16a-hexadecahydrospiro[cyclopropa[e]pyrrolo[1,2-a][1,4]diazacyclopentadecine-2,3′-pyrano[2,3-c]quinolin]-6-yl]carbamate]
EC50 [1]: 5.79 nM | IC50 [2]: 0.012 nM

Cc1nc2ccccc2c2c1O[C@]1(CC2)C[C@H]2C(=O)N[C@]3(C(=O)NS(=O)(=O)C4(C)CC4)C[C@H]3/C=C\CCCCC[C@H](NC(=O)OC(C)(C)CCS(=O)(=O)C(C)C)C(=O)N2C1 [Example 304, 2-methyl-4-(propan-2-ylsulfonyl)butan-2-yl [(2R,6S,12Z,13aS,14aR,16aS)-5′-methyl-14a-{[(1-methylcyclopropyl)sulfonyl]carbamoyl}-5,16-dioxo-1,1′,2′,5,6,7,8,9,10,11,13a,14,14a,15,16,16a-hexadecahydrospiro[cyclopropa[e]pyrrolo[1,2-a][1,4]diazacyclopentadecine-2,3′-pyrano[2,3-c]quinolin]-6-yl]carbamate]
EC50 [1]: 99.6 nM | IC50 [2]: 0.027 nM

Cc1nc2ccc(OC(F)(F)F)cc2c2c1O[C@]1(CC2)C[C@H]2C(=O)N[C@]3(C(=O)NS(=O)(=O)C4(C)CC4)C[C@H]3/C=C\CCCCC[C@H](NC(=O)OC(C)(C)CCS(=O)(=O)C(C)C)C(=O)N2C1 [Example 305, 2-methyl-4-(propan-2-ylsulfonyl)butan-2-yl [(2R,6S,12Z,13aS,14aR,16aS)-5′-methyl-14a-{[(1-methylcyclopropyl)sulfonyl]carbamoyl}-5,16-dioxo-9′-(trifluoromethoxy)-1,1′,2′,5,6,7,8,9,10,11,13a,14,14a,15,16,16a-hexadecahydrospiro[cyclopropa[e]pyrrolo[1,2-a][1,4]diazacyclopentadecine-2,3′-pyrano[2,3-c]quinolin]-6-yl]carbamate]
EC50 [1]: 35.2 nM | IC50 [2]: 0.029 nM

CC(C)(C)OC(=O)N[C@H]1CCCCC/C=C\[C@@H]2C[C@@]2(C(=O)NS(=O)(=O)C2(C)CC2)NC(=O)[C@@H]2C[C@]3(CCc4c(c(C(F)F)nc5ccccc45)O3)CN2C1=O [Example 306, tert-butyl [(2R,6S,12Z,13aS,14aR,16aS)-5′-(difluoromethyl)-14a-{[(1-methylcyclopropyl)sulfonyl]carbamoyl}-5,16-dioxo-1,1′,2′,5,6,7,8,9,10,11,13a,14,14a,15,16,16a-hexadecahydrospiro[cyclopropa[e]pyrrolo[1,2-a][1,4]diazacyclopentadecine-2,3′-pyrano[2,3-c]quinolin]-6-yl]carbamate]
EC50 [1]: 1.87 nM | IC50 [2]: 0.015 nM

Cc1nc2ccccc2c2c1O[C@]1(CC2)C[C@H]2C(=O)N[C@]3(C(=O)NS(=O)(=O)C4(C)CC4)C[C@H]3/C=C\CCCCC[C@H](NC(=O)OC(C)(C(F)(F)F)C(F)(F)F)C(=O)N2C1 [Example 307, 1,1,1,3,3,3-hexafluoro-2-methylpropan-2-yl [(2R,6S,12Z,13aS,14aR,16aS)-5′-methyl-14a-{[(1-methylcyclopropyl)sulfonyl]carbamoyl}-5,16-dioxo-1,1′,2′,5,6,7,8,9,10,11,13a,14,14a,15,16,16a-hexadecahydrospiro[cyclopropa[e]pyrrolo[1,2-a][1,4]diazacyclopentadecine-2,3′-pyrano[2,3-c]quinolin]-6-yl]carbamate]
EC50 [1]: 1080 nM | IC50 [2]: 0.019 nM

Cc1nc2ccc(OCC(F)(F)F)cc2c2c1O[C@]1(CC2)C[C@H]2C(=O)N[C@]3(C(=O)NS(=O)(=O)C4(C)CC4)C[C@H]3/C=C\CCCCC[C@H](NC(=O)OC(C)(C(F)(F)F)C(F)(F)F)C(=O)N2C1 [Example 308, 1,1,1,3,3,3-hexafluoro-2-methylpropan-2-yl [(2R,6S,12Z,13aS,14aR,16aS)-5′-methyl-14a-{[(1-methylcyclopropyl)sulfonyl]carbamoyl}-5,16-dioxo-9′-(2,2,2-trifluoroethoxy)-1,1′,2′,5,6,7,8,9,10,11,13a,14,14a,15,16,16a-hexadecahydrospiro[cyclopropa[e]pyrrolo[1,2-a][1,4]diazacyclopentadecine-2,3′-pyrano[2,3-c]quinolin]-6-yl]carbamate]
EC50 [1]: 416 nM | IC50 [2]: 0.006 nM

CC(C)(OC(=O)N[C@H]1CCCCC/C=C\[C@@H]2C[C@@]2(C(=O)NS(=O)(=O)C2(C)CC2)NC(=O)[C@@H]2C[C@]3(CCc4c(c(C(F)F)nc5ccccc45)O3)CN2C1=O)C(F)(F)F [Example 309, 1,1,1-trifluoro-2-methylpropan-2-yl [(2R,6S,12Z,13aS,14aR,16aS)-5′-(difluoromethyl)-14a-{[(1-methylcyclopropyl)sulfonyl]carbamoyl}-5,16-dioxo-1,1′,2′,5,6,7,8,9,10,11,13a,14,14a,15,16,16a-hexadecahydrospiro[cyclopropa[e]pyrrolo[1,2-a][1,4]diazacyclopentadecine-2,3′-pyrano[2,3-c]quinolin]-6-yl]carbamate]
EC50 [1]: 1.94 nM | IC50 [2]: 0.01 nM

Cc1nc2ccc(OC(F)F)cc2c2c1O[C@]1(CC2)C[C@H]2C(=O)N[C@]3(C(=O)NS(=O)(=O)C4(C)CC4)C[C@H]3/C=C\CCCCC[C@H](NC(=O)OC(C)(C)C(F)(F)F)C(=O)N2C1 [Example 310, 1,1,1-trifluoro-2-methylpropan-2-yl [(2R,6S,12Z,13aS,14aR,16aS)-9′-(difluoromethoxy)-5′-methyl-14a-{[(1-methylcyclopropyl)sulfonyl]carbamoyl}-5,16-dioxo-1,1′,2′,5,6,7,8,9,10,11,13a,14,14a,15,16,16a-hexadecahydrospiro[cyclopropa[e]pyrrolo[1,2-a][1,4]diazacyclopentadecine-2,3′-pyrano[2,3-c]quinolin]-6-yl]carbamate]
EC50 ([1]; K+ salt): 5.66 nM | IC50 ([2]; K+ salt): 0.008 nM

CC(C)(C)COC(=O)N[C@H]1CCCCC/C=C\[C@@H]2C[C@@]2(C(=O)NS(=O)(=O)C2(C)CC2)NC(=O)[C@@H]2C[C@]3(CCc4c(c(C(F)F)nc5ccccc45)O3)CN2C1=O [Example 311, 2,2-dimethylpropyl [(2R,6S,12Z,13aS,14aR,16aS)-5′-(difluoromethyl)-14a-{[(1-methylcyclopropyl)sulfonyl]carbamoyl}-5,16-dioxo-1,1′,2′,5,6,7,8,9,10,11,13a,14,14a,15,16,16a-hexadecahydrospiro[cyclopropa[e]pyrrolo[1,2-a][1,4]diazacyclopentadecine-2,3′-pyrano[2,3-c]quinolin]-6-yl]carbamate]
EC50 [1]: 1.23 nM | IC50 [2]: 0.008 nM

CCc1nc2ccc(OC)cc2c2c1O[C@]1(CC2)C[C@H]2C(=O)N[C@]3(C(=O)NS(=O)(=O)C4(C)CC4)C[C@H]3/C=C\CCCCC[C@H](NC(=O)OC(C)(C)C)C(=O)N2C1 [Example 312, tert-butyl [(2R,6S,12Z,13aS,14aR,16aS)-5′-ethyl-9′-methoxy-14a-{[(1-methylcyclopropyl)sulfonyl]carbamoyl}-5,16-dioxo-1,1′,2′,5,6,7,8,9,10,11,13a,14,14a,15,16,16a-hexadecahydrospiro[cyclopropa[e]pyrrolo[1,2-a][1,4]diazacyclopentadecine-2,3′-pyrano[2,3-c]quinolin]-6-yl]carbamate]
EC50 [1]: 3.56 nM | IC50 [2]: 0.009 nM

CCc1ccc2nc(C)c3c(c2c1)CC[C@]1(C[C@H]2C(=O)N[C@]4(C(=O)NS(=O)(=O)C5(C)CC5)C[C@H]4/C=C\CCCCC[C@H](NC(=O)OC(C)(C)C)C(=O)N2C1)O3 [Example 313, tert-butyl [(2R,6S,12Z,13aS,14aR,16aS)-9′-ethyl-5′-methyl-14a-{[(1-methylcyclopropyl)sulfonyl]carbamoyl}-5,16-dioxo-1,1′,2′,5,6,7,8,9,10,11,13a,14,14a,15,16,16a-hexadecahydrospiro[cyclopropa[e]pyrrolo[1,2-a][1,4]diazacyclopentadecine-2,3′-pyrano[2,3-c]quinolin]-6-yl]carbamate]
EC50 [1]: 2.87 nM | IC50 [2]: 0.016 nM

CCc1ccc2nc(C)c3c(c2c1)CC[C@]1(C[C@H]2C(=O)N[C@]4(C(=O)NS(=O)(=O)C5(C)CC5)C[C@H]4/C=C\CCCCC[C@H](NC(=O)OC(C)(C)C(F)(F)F)C(=O)N2C1)O3 [Example 314, 1,1,1-trifluoro-2-methylpropan-2-yl [(2R,6S,12Z,13aS,14aR,16aS)-9′-ethyl-5′-methyl-14a-{[(1-methylcyclopropyl)sulfonyl]carbamoyl}-5,16-dioxo-1,1′,2′,5,6,7,8,9,10,11,13a,14,14a,15,16,16a-hexadecahydrospiro[cyclopropa[e]pyrrolo[1,2-a][1,4]diazacyclopentadecine-2,3′-pyrano[2,3-c]quinolin]-6-yl]carbamate]
EC50 [1]: 8.74 nM | IC50 [2]: 0.013 nM
